Measured values published in patent publication US8268809B2, “Kinase inhibitors for preventing or treating pathogen infection and method of use thereof” (priority 2006, dated 2012).
Entries after “also recorded” stand apart in the source; their conditions may differ.

What follows are compounds tested on vaccinia virus.
Assay type: cell-based
Throughout, for VACCINIA PLAQUE ASSAY 2: test concentration or dose not given here.

Row | Structure (SMILES) | Class category of infected monolayers in plaque assay | VACCINIA PLAQUE ASSAY 2 | VACCINIA Plaque Assay | Plaque phenotype due to drug treatment (FIGS. 1, 2, 4)
1 | COc1ccccc1Nc1cc(-c2ccc3[nH]ccc3c2)ncn1 [Eph2_wbz 216] | Class III | NO PLAQUES | SLIGHTLY SMALLER PLAQUES | –
2 | COc1ccccc1NS(=O)(=O)c1cccc(Nc2cc(-c3ccc(C(=O)O)cc3)ncn2)c1 [Eph2_wbz 104] | Class III | SLIGHTLY SMALLER PLAQUES | NO PLAQUES | –
3 | Cc1ccc(-c2n[nH]c3nc(-c4ccc(C(=O)c5ccccc5)cc4)ccc23)cc1F [APcK-37] | – | SMALL PLAQUES | – | –
4 | COc1ccccc1Nc1cc(-c2ccc(O)cc2)ncn1 [Eph2_wbz 202] | Class III | PINPOINT PLAQUES | PLAQUES SMALLER THAN WT, STILL SEE COMETS | –
5 | COc1cc(OC)cc(-c2ccc3c(-c4ccc(Cl)c(F)c4)n[nH]c3n2)c1 [APcK-111] | Class III | PINPOINT PLAQUES | PINPOINT PLAQUES | pinpoint plaque formations; also recorded: pinpoint plaques
6 | Cc1ccc(NC(=O)c2ccc(CN3CCN(CCO)CC3)cc2)cc1Nc1nccc(-c2cccnc2)n1 [STI-OH] | Class III | SMALL PLAQUES | PINPOINT PLAQUES | –
7 | COC(=O)C1(Cc2ccccc2)OC(=O)C(O)=C1c1ccccc1 (stereo not drawn) [butyro- lactones-1] | – | – | SMALL PLAQUES WITH LARGE TAILS OR CPE | more plaque formations than wild type; also recorded: more plaques than WT
8 | Cn1c(=O)c(-c2c(Cl)cccc2Cl)cc2cnc(Nc3cccc(N)n3)nc21 [YYA104] | Class III | NO PLAQUES | PINPOINT PLAQUES | –
9 | O=C(Nc1cccc(-c2ccc3nnc(-c4cccs4)n3n2)c1)c1cccc([N+](=O)[O-])c1 [YYB32] | Class III | SMALL PLAQUES | SMALLER PLAQUES | –
10 | CC(=O)Nc1ccc(-c2ccc3c(-c4ccc(C)c(F)c4)n[nH]c3n2)cc1 [APcK-28] | – | SMALL PLAQUES | – | –
11 | NC(=O)c1cccc(-c2ccc3c(-c4ccc(F)cc4)n[nH]c3n2)c1 [APcK-115] | – | SMALL PLAQUES | – | –
12 | Cc1ccc(-n2c(=O)[nH]c3c(C(N)=O)nc(-c4c(Cl)cccc4[N+](=O)[O-])nc32)cc1 [dm-I-193] | Class III | NO PLAQUES | SMALL PLAQUES | –
13 | O=C(c1ccccc1)c1ccc(-c2ccc3c(-c4ccc(Br)c(F)c4)n[nH]c3n2)cc1 [APcK-38] | – | NO PLAQUES | – | –
14 | COc1ccc(-c2n[nH]c3nc(-c4ccc(C(=O)c5ccccc5)cc4)ccc23)cc1 [APcK-34] | – | – | SMALL PLAQUES, LARGE COMETS | small plaque and large comets; also recorded: small plaques with large comets
15 | O=C(NCCO)c1cccc(-c2cnc3c(NCc4ccc(F)cc4)nccn23)c1 [LG2-96] | Class III | NO PLAQUES | NO PLAQUES | no pinpoint plaque formed; also recorded: no plaques
16 | CC(=O)Nc1ccc(-c2ccc3c(-c4ccc(Cl)cc4Cl)n[nH]c3n2)cc1 [APcK-26] | Class III | SMALL PLAQUES | PINPOINT PLAQUES | pinpoint plaque formations; also recorded: pinpoint plaques
17 | COc1ccc(Nc2nccn3c(-c4cccc(C(N)=O)c4)cnc23)cc1 [LG2-13] | Class III | SLIGHTLY SMALLER PLAQUES | PINPOINT PLAQUES | –
18 | CN(C)CCCNC(=O)/C=C\C(=O)Nc1ccc2ncnc(Nc3cccc(I)c3)c2c1 [JGAP-13] | – | – | MORE PLAQUES THAN WT | more plaque formations than wild type; also recorded: more plaques than WT
19 | Cn1c(=O)c(-c2c(Cl)cccc2Cl)cc2cnc(Nc3ccc(O)cc3)nc21 [YYA190] | – | – | CPE (MONO- LAYER NOT INFECTED WITH VV; DRUG DE- STROYED MONO- LAYER, THOUGH) | –
20 | Fc1ccc(CNc2nccn3c(Br)cnc23)cc1 [LG2-91] | Class III | NO PLAQUES | NO PLAQUES | no pinpoint plaque formed; also recorded: no plaques
21 | Cn1c(=O)c(-c2c(Cl)cccc2Cl)cc2cnc(Nc3cccc(C(C)(C)C)c3)nc21 [YYA195] | Class III | NO PLAQUES | NO PLAQUES | –
22 | Cn1c(=O)c(-c2c(Cl)cccc2Cl)cc2cnc(NC3CCN(Cc4ccccc4)CC3)nc21 [YYA188] | Class III | NO PLAQUES | NO PLAQUES | –

Row | Structure (SMILES) | Class category of infected monolayers in plaque assay | VACCINIA PLAQUE ASSAY 2 | VACCINIA Plaque Assay | Plaque phenotype due to drug treatment (FIGS. 1, 2, 4)
23 | CCOC(=O)c1ccc(-c2n[nH]c3nc(-c4cc(C)c(O)c(C)c4)ccc23)cc1 [APcK-106] | Class III | PINPOINT PLAQUES | SMALLER PLAQUES THAN WT | –
24 | Cc1ccc(-n2c(=O)[nH]c3c(C(N)=O)nc(C4CCCCC4)nc32)cc1 [dm-I-203] | Class III | PINPOINTS | SMALL PLAQUES | –
25 | COc1cc(OC)cc(-c2ccc3c(-c4ccc(F)cc4)n[nH]c3n2)c1 [APcK-110] | Class II | SMALL PLAQUES | SMALL PLAQUES, SEE LOTS OF SATELLITE PLAQUES | –
26 | CCOC(=O)c1ccc(-c2ccc3c(-c4ccc(C(=O)OCC)cc4)n[nH]c3n2)cc1 [APcK-48] | Class III | SMALL PLAQUES | PINPOINT PLAQUES | –
27 | COc1ccccc1NS(=O)(=O)c1cccc(Nc2cc(-c3ccc(NC(=O)CCC(=O)O)cc3)ncn2)c1 [Eph2_wbz 117] | Class III | SMALL PLAQUES; COMETS? | NO PLAQUES | –
28 | COc1ccc(OC)c(S(=O)(=O)Nc2cccc(-c3ccc4nnc(-c5cccs5)n4n3)c2)c1 [YYB44] | Class II | SMALL PLAQUES | MEDIUM PLAQUES | –
29 | O=C(c1ccccc1)c1ccc(-c2ccc3c(-c4ccc(Br)cc4F)n[nH]c3n2)cc1 [APcK-39] | – | NO PLAQUES | – | –
30 | CCOC(=O)c1ccc(-c2n[nH]c3nc(-c4ccc(NC(C)=O)cc4)ccc23)cc1 [APcK-19] | – | SMALL PLAQUES | – | –
31 | COc1ccc(-c2nc(C(N)=O)c3[nH]c(=O)n(-c4ccc(C)cc4)c3n2)cc1OC [dm-I-196] | Class III | PINPOINTS | SMALL PLAQUES, NO TAILS | small plaques with no comets; also recorded: smaller (pinpoint) plaques with no comets
32 | Cc1cc(-c2ccc3c(-c4ccc(Cl)c(F)c4)n[nH]c3n2)cc(C)c1O [APcK-107] | Class II | SMALLER PLAQUES THAN WT | SMALLER PLAQUES THAN WT | –
33 | COc1ccccc1NS(=O)(=O)c1cccc(Nc2cc(-c3ccc([N+](=O)[O-])cc3)ncn2)c1 [Eph2_wbz 103] | Class III | PINPOINT | NO PLAQUES | –
34 | CN(C)CCNC(=O)c1ccc(-c2cnc3c(Nc4ccc(Oc5ccccc5)cc4)nccn23)cc1 [LG2-11] | Class III | NO PLAQUES | CPE, PINPOINT PLAQUES | –
35 | Brc1cnc2c(NCc3cccs3)nccn12 [LG2-95] | Class III | NO PLAQUES | PINPOINT PLAQUES | –
36 | COc1cc(OC)cc(-c2cnc3c(NCC4CC4)nccn23)c1 [LG2-102] | Class III | NO PLAQUES | NO PLAQUES | –
37 | O=C(Nc1cccc(-c2ccc3nnc(-c4ccco4)n3n2)c1)Sc1ccccc1 [LG2-79] | Class II | SMALL PLAQUES | SMALLER PLAQUES, COMETS? | –
38 | O=C1NC(=O)/C(=C/c2ccc3c(c2)OC(F)(F)O3)S1 [AS-604850, reference compound] | Class III | NO PLAQUES | NO PLAQUES | –
39 | COc1ccccc1Nc1cc(-c2ccc(NC(=O)CCC(=O)O)cc2)ncn1 [Eph2_wbz 217] | – | – | SLIGHTLY SMALLER PLAQUES | –
40 | COc1ccccc1NS(=O)(=O)c1cccc(NC(=O)CCOc2ccc3c(=O)[nH]ccc3c2)c1 [JAK2F] | Class II | SLIGHTLY SMALLER PLAQUES | SMALL PLAQUES | –
41 | Cc1ccc(-c2ccnc(Nc3cc(NC(=O)c4ccc(CN5CCN(C)CC5)cc4)ccc3C)n2)cn1 [WBZ-4] | Class II | SMALL PLAQUES | SMALL PLAQUES | –
42 | CCN(CC)CCNC(=O)/C=C\C(=O)Nc1ccc2ncnc(Nc3cccc(I)c3)c2c1 [JGAP-11] | – | – | MORE PLAQUES THAN WT | –
43 | Cc1ccc(NC(=O)c2ccc(CN3CCN(C)CC3)cc2)cc1Nc1nccc(-c2cnccc2C)n1 [StiAF3_Ue] | Class III | NO PLAQUES | NO PLAQUES | –
44 | Cc1ccc(-n2c(=O)[nH]c3c(C(N)=O)nc(-c4ccc([N+](=O)[O-])cc4[N+](=O)[O-])nc32)cc1 [dm-I-180] | – | – | LARGE TAILS | –
